Experimental data taken from patent EP3952872B1, “CARBAMOYL CYCLOHEXANE DERIVATIVES FOR TREATING AUTISM SPECTRUM DISORDER” (Richter Gedeon Nyrt., priority 2019, dated 2020).
“Also recorded” adds a separate entry of the source. Where two headings read alike, the source gives them in different places.

What was measured:
[1] = tested on: prenatally valproate-treated rats; experiment: open field assay, prenatal valproate model; type: in vivo, Wistar rats; conditions: p.o. daily for 9 days, 0.003-0.1 mg/kg, male offspring
Method: Offspring are housed according to standard laboratory conditions until time of behavioral testing. Animals are housed in groups of 4 in conventional cages and maintained at 22-24°C on a standard 12 hour light/dark cycle, with food and water available ad libitum. After investigational drug treatment, offspring are examined behaviorally in tests relevant for the assessment of autistic behavior. These tests include maternal deprivation-induced ultrasonic vocalization in rat pups, social play, social preference and the open field. […] At postnatal day 31-32, animals are scored for locomotor activity and exploratory behavior in a 10-min trial in an open field test arena after 9-day oral treatment with the test compound. Activity is analysed for readouts of repetitive/stereotypic behaviors such as total distance moved and frequency of circling behavior. Statistical analysis employs one-way ANOVA and the post hoc Dunnett test.

[2] = tested on: prenatally valproate-treated rats; experiment: maternal deprivation-induced ultrasonic vocalization in rat pups, prenatal valproate model; type: in vivo, Wistar rats; conditions: acute p.o.; effect at 0.003, 0.03 and 0.1 mg/kg (0.01 mg/kg also tested); Figure 1
Method: Ultrasonic call counts are recorded for 10 min.

dopamine D2 receptor [3] = molecular target: T1, dopamine D2 receptor (Homo sapiens, UniProt P14416); conditions: literature; cited from earlier work
T1 sequence (P14416 whole entry): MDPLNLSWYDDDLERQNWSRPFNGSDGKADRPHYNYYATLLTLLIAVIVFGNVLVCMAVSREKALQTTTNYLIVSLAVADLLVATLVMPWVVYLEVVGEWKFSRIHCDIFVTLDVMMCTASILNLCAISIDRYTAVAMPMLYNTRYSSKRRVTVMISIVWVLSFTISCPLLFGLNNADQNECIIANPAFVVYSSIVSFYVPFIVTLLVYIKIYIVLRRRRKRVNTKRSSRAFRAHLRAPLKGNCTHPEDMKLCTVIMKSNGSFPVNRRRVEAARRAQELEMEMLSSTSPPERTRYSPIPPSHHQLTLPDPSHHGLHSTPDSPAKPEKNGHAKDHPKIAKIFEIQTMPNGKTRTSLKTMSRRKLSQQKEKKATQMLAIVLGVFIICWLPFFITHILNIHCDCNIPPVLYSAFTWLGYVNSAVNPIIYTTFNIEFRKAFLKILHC

[4] = tested on: prenatally valproate-treated rats; experiment: social play behavior, prenatal valproate model; type: in vivo, Wistar rats; conditions: p.o. daily for 8 days; 0.003-0.1 mg/kg, significant at 0.1 mg/kg; male offspring; Figure 3
Method: Offspring are housed according to standard laboratory conditions until time of behavioral testing. Animals are housed in groups of 4 in conventional cages and maintained at 22-24°C on a standard 12 hour light/dark cycle, with food and water available ad libitum. After investigational drug treatment, offspring are examined behaviorally in tests relevant for the assessment of autistic behavior. These tests include maternal deprivation-induced ultrasonic vocalization in rat pups, social play, social preference and the open field. […] At postnatal day 30, following 8 days treatment with the test compound, prenatally VPA-treated rats are evaluated for juvenile play behavior. The test is carried out in a novel test arena with pairs of animals from the same treatment group over a 15-min trial. Animals are scored for play activity measured by duration of social play behavior. Statistical analysis employs one-way ANOVA and the post hoc Dunnett test.

[5] = molecular target: T2, serotonin 5-HT2B receptor (Homo sapiens, UniProt P41595); conditions: literature; cited from earlier work
T2 sequence (P41595 whole entry): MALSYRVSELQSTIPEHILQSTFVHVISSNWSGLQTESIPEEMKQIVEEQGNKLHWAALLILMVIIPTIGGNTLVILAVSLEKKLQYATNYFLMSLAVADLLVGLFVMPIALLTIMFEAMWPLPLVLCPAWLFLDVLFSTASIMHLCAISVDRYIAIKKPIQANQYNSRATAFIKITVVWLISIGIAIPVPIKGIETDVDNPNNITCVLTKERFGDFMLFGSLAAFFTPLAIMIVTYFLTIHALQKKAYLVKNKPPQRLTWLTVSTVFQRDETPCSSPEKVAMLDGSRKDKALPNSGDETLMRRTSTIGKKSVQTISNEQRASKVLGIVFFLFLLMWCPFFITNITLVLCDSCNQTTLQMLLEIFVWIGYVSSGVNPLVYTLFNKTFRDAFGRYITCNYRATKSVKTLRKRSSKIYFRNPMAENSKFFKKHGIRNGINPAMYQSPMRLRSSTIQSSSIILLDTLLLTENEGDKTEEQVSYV

[6] = molecular target: T3, serotonin 5-HT1A receptor (Homo sapiens, UniProt P08908); conditions: cited from earlier work
T3 sequence (P08908 1-422): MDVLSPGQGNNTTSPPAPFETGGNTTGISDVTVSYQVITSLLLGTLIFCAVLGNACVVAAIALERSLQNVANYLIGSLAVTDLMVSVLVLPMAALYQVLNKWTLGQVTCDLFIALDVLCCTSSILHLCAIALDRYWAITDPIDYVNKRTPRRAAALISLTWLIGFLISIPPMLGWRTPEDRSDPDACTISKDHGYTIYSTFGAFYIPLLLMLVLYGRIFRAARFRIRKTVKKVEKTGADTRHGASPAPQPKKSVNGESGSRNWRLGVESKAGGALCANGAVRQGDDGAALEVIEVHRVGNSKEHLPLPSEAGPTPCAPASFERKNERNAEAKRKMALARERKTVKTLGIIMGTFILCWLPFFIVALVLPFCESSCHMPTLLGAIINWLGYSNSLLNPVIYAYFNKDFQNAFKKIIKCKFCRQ

dopamine D2 receptor [7] = molecular target: T1, dopamine D2 receptor; experiment: functional activity at dopamine D2 receptor; type: biochemical; conditions: Compound 2
dopamine D2S receptor = dopamine D2S receptor (Homo sapiens, UniProt P14416); experiment: dopamine D2S receptor affinity; type: binding
dopamine D2S receptor, sequence (P14416 1-414 isoform P14416-2): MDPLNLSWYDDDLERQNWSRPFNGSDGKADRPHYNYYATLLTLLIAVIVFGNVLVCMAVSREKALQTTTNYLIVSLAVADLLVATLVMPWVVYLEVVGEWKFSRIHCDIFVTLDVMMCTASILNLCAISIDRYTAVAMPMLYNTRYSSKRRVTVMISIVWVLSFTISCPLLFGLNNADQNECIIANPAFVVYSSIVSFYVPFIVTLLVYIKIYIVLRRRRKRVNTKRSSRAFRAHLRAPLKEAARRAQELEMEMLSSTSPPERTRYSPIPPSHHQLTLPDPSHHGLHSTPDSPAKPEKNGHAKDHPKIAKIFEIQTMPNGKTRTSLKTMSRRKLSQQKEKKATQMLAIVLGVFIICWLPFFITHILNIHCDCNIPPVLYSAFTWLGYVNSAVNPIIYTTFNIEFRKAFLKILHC

[8] = molecular target: T3, serotonin 5-HT1A receptor; experiment: biochemical
[9] = molecular target: T3, serotonin 5-HT1A receptor; conditions: Compound 2
[10] = molecular target: T2, serotonin 5-HT2B receptor; experiment: functional activity at serotonin 5-HT2B receptor; type: biochemical; conditions: Compound 2
dopamine D2L receptor = dopamine D2L receptor (Homo sapiens, UniProt P14416); experiment: dopamine D2L receptor affinity; type: binding
dopamine D2L receptor, sequence (P14416 whole entry): as the sequence (P14416 whole entry) above

[11] = molecular target: T2, serotonin 5-HT2B receptor; experiment: serotonin 5-HT2B receptor affinity; type: binding

| Compound | excessive motility / hyperactivity (distance travelled) ([1]; significant at 0.1 mg/kg, Figure 4) | excessive circling behavior (number of 360-degree turns) ([1]; significant at all doses, Figure 5) | isolation-induced vocalizations (number of USV vocalizations) [2] | functional character at the dopamine D2 receptor (dopamine D2 receptor [3]) | social play deficit (time spent playing) [4] | functional character at the serotonin 5-HT2B receptor [5] | intrinsic activity at the serotonin 5-HT1A receptor ([6]; literature (Heusler et al. 2016; Kiss et al. 2010)) [%] | functional character at the serotonin 5-HT1A receptor ([6]; literature) | functional character at the dopamine D2 receptor (dopamine D2 receptor [7]) | Ki (dopamine D2S receptor) [pM] | Ki [8] [pM] | functional character at the serotonin 5-HT1A receptor [9] | functional character at the serotonin 5-HT2B receptor [10] | Ki (dopamine D2L receptor) [pM] | Ki [11] [pM] |
| --- | --- | --- | --- | --- | --- | --- | --- | --- | --- | --- | --- | --- | --- | --- | --- |
| CN(C)C(=O)N[C@H]1CC[C@H](CCN2CCN(c3cccc(Cl)c3Cl)CC2)CC1 [cariprazine, trans-N-[4-[2-[4-(2,3-dichlorophenyl)piperazin-1-yl]ethyl]cyclohexyl]-N',N'-dimethylurea] | fully reversed | statistically significant; also recorded: fully reversed | statistically significant; also recorded: fully reversed | partial agonist | statistically significant; also recorded: partially nevertheless, significantly reversed | full antagonist | 38 | weak partial agonist | – | – | – | – | – | – | – |
| O=C(N[C@H]1CC[C@H](CCN2CCN(c3cccc(Cl)c3Cl)CC2)CC1)N1CCOCC1 [Compound 2, trans-N-(4-{2-[4-(2,3-dichloro-phenyl)-piperazine-1-yl]-ethyl}-cyclohexyl)-morpholine-4 carboxamide] | – | – | – | – | – | – | – | – | partial agonist | 520 | 5730 | weak partial agonist | full antagonist | 400 | 1110 |
